The record followed here is patent US9809562B2, “NAT10 modulators for treating or preventing laminopathies, aging and cancer” (CAMBRIDGE ENTERPRISE LIMITED, priority 2014, dated 2017).

The test system of assay [1] is prostate 22RV1 cancer cells. Nature of the assay: Matrigel invasion assay. The format is cell-based, human. The following applies: 50 μM. Here is the method: FIG. 15: Compound 2 inhibits the proliferation, migration and invasion of cancer cells with low Lamin A/C expression. […] C) Quantification of transwell migration assays and matrigel invasion assays from the indicated low expressing cancer cell lines after treatment with 50 μM of compound 2.

A further assay has as its system Lmna^G609G/G609G mice. Nature of the assay: Tubulin acetylation levels in mice. The format is in vivo, mouse. The conditions noted are these: treated Lmna^G609G/G609G mice. Here is the method:
As Tubulin is a direct substrate of NAT10, Tubulin acetylation levels in cells derived from HGPS patients (left and bottom panel of FIG. 27) were assessed as well as in Lmna^G609G/G609G mice (right panel of FIG. 27).

The subject of assay [2] is HGPS primary fibroblasts (AG11498 and AG06267). Nature of the assay: Misshapen nuclei in HGPS cells. The conditions noted are these: HGPS patient fibroblasts. The format is cell-based, human. Here is the method:
U2OS and SaOS-2 osteosarcoma cells, HeLa cervical cancer cells, A431 melanoma cells, NCI-SNU5 gastric cancer cells, MRC-5 lung fibroblast cells and Werner syndrome patient-derived SV40 fibroblast cells were grown in Dulbecco's modified Eagle medium (DMEM, Sigma-Aldrich) supplemented with 10% fetal bovine serum (BioSera), 2 mM L-glutamine, 100 U per ml penicillin, 100 μg ml^−1 streptomycin. Normal skin primary fibroblasts GM03440 and Hutchinson Gilford Progeria Syndrome (HGPS) skin primary fibroblasts AG11498 and AG06297 were purchased from Coriell Cell Repositories and used between passage number 9-12 and 20-23 respectively. Cells were grown in DMEM supplemented as above. RPE-1 retinal pigment epithelial cells were grown in DMEM and Ham F12 mix medium supplemented as above and buffered with sodium bicarbonate. HMV-II melanoma cell line, 22RV1 prostate carcinoma cells, NCI-H82 and NCI-H69 lung carcinoma cells, and NCI-N87 gastric cancer cell lines were grown in RPMI-1640 medium (Sigma-Aldrich) supplemented as above. Stably transfected U2OS cells were maintained in standard medium containing 1 mg ml^−1 G418 (Invitrogen). The siRNA duplexes were obtained from Life Sciences: Lamin A/C stealth RNAi: […] (SEQ ID NO: 1) and […] (SEQ ID NO: 2), NAT10 stealth RNAi: […] (SEQ ID NO: 3), and as control siRNA, stealth RNAi negative control duplexes were used. Plasmid DNA and siRNA transfections were carried out using Lipofectamine 2000 and Lipofectamine RNAiMax (Life Sciences) respectively, following the manufacturer's instructions. Cells were analysed 48 to 72 hours after transfection.
(§1) The following KAT and KDAC inhibitors were used in the nuclear shape rescue screen, incubating cells with the molecules for 16 hours: trichostatin A (1 μM), sodium butyrate (5 mM), tubacin (10 μM), SAHA (5 μM), curcumin (10 μM), garcinol (50 μM), anacardic acid (1 μM), MB-3 (5 μM), 4-(4-chlorophenyl)-2-(2-cyclopentylidenehydrazinyl)thiazole (Compound 2) (50 μM), 4-(4-chlorophenyl)-2-(2-cyclopentylidene-1-(prop-2-yn-1-yl)hydrazinyl)thiazole (Compound 3) (50 μM) and cyclopentylidene-[4-(4-cyanophenyl)thiazol-2-yl)hydrazine (Compound 1) (Remodelin) (10 to 50 μM). For HGPS cellular fitness assays, Remodelin was incubated at 1 μM for 1 to 10 days, renewing the medium every 3 days. For long-term senescence assay, cells were kept and passaged in medium containing 1 μM Remodelin or DMSO only for 12 population doublings. Senescence was assessed after 8 days of Remodelin treatment when cells were at Population Doubling 12, and then after several weeks of Remodelin treatment, when cells reached Population Doubling 24 using the Senescence β-Galactosidase Staining Kit #9860 from Cell Signaling. Nocodazole, colchicine and latrunculin A (Sigma-Aldrich) were used at 200 ng/ml, 1 μg/ml and 1 μM respectively. […]

In assay [3] the test system is farnesyltransferase activity (pre-Lamin A cleavage and maturation). Nature of the assay: Lamin A processing by western blotting. The format is cell-based, human. Here is the method:
as §1, with “Signaling.” for “Signaling. Nocodazole, colchicine and latrunculin A (Sigma-Aldrich) were used at 200 ng/ml, 1 μg/ml and 1 μM respectively.”
Total cell extracts were prepared by scraping cells in SDS lysis buffer (4% SDS, 20% glycerol, and 120 mM Tris-HCl, pH 6.8), boiling for 5 minutes at 95° C., followed by 10 strokes through a 25-gauge needle. […] Detection and quantification was performed with an imager (Odyssey; LI-COR Biosciences).
For orientation: A western blot detects proteins with antibodies after separation by electrophoresis.

Assay [4] concerns microtubule network of cells. Nature of the assay: Microtubule network by immunofluorescence of α-Tubulin. The format is cell-based. How it is done: Cells were washed with PBS and fixed for 20 minutes with 2% PFA in PBS. Cells were permeabilised for 5 minutes with PBS/0.2% Triton X-100, and blocked with PBS/0.2% Tween 20 (PBS-T) containing 5% BSA. Coverslips were incubated for 1 hour with primary antibodies and for 30 minutes with appropriate secondary antibodies coupled to Alexa Fluor 488 or 594 fluorophores (Life Technologies), before being incubated with 2 μg/ml DAPI. Pictures were acquired with a FluoView 1000 confocal microscope (Olympus). For high resolution imaging, z-stacks were acquired with a Deltavision PersonalDV (Applied Precision, 1024×1024 CoolSNAP HQ2 camera, z-stack of 0.2 μm interval) or with a Deltavision OMX V3 in conventional mode (Applied Precision, 512×512 Cascade II cameras (Photometrics), z-stack of 0.125 μm interval) both equipped with a 100× UPlanSApo/1.40 oil objective (Olympus) and controlled with SoftWoRx software (Applied Precision). Deconvolutions were then performed with SoftWoRx (Applied Precision) in conservative mode. The different channels were acquired sequentially.

Molecules are shown by their SMILES. Where a name gives a salt, the structure may show the parent alone.

Regarding `Clc1ccc(-c2csc(NN=C3CCCC3)n2)cc1` [Compound 2, 4-(4-Chlorophenyl)-2-(2-cyclopentylidenehydrazinyl)thiazole Hydrochloride Salt], the “matrigel invasion of 22RV1 cells” value in assay [1] is on record as “no invasion upon treatment”. In addition, in the assay on Lmna^G609G/G609G mice, the tubulin acetylation levels result is on record as “decrease of tubulin acetylation levels”.

Take `N#Cc1ccc(-c2csc(NN=C3CCCC3)n2)cc1` [Compound 1, 4-(4-Cyanophenyl)-2-(2-cyclopentylidenehydrazinyl)thiazole]: the “misshapen nuclei / nuclear shape of HGPS cells” value in assay [2] is reported as “significantly reduced the number of HGPS cells with misshapen nuclei”. Besides, the “pre-Lamin A processing” value in assay [3] was “did not block pre-Lamin A cleavage and maturation”. Besides, in assay [4], the microtubule network organization entry is listed as “striking reorganization”.
